According to patent US10106588B2, “Nucleic acids encoding peptides for treating wounds, anti-angiogenic compounds and uses thereof” (Trustees of Tufts College, priority 2008, dated 2018):
Where no end group is shown, it is not given here.

Experiments:
[1] = tested on: Normal Human Epithelial Keratinocyte (NHEK); assay: in vitro response to injury: keratinocyte migration / relative wound closure; assay type: cell-based; settings: for relative wound closure via NHEK migration: 0.5 nM of each peptide, compared to control (FIG. 4); for keratinocyte migration in response to injury in vitro: general statement, no concentration
Description: FIG. 4 is a graph illustrating a measure of relative wound closure via Normal Human Epithelial Keratinocyte (NHEK) migration after exposure to 0.5 nM of each of the peptides of SEQ ID NOs: 1, 2, and 3 (“UN1,” “UN2,” and “UN3” respectively).
(§1) Each of the three peptide sequences were then analyzed for activity via (1) in vitro angiogenesis assays where blood vessel formation in vitro was quantified; (2) in vitro response to injury analyses, including quantitative analysis, of migration in response to injury; and (3) in vitro quantitation of cell proliferation assays. The results of experiments performed are illustrated in FIGS. 1 to 4.
In addition, each of the three peptides of the invention were compared with regard to adult normal human epithelial keratinocyte migration.

[2] = tested on: Human Microvascular Endothelial Cells (HMVEC); assay: in vitro angiogenesis assay: tubule formation from HMVEC in Matrigel; assay type: cell-based; settings: for induction of angiogenesis in vitro: general statement, no concentration
Description: FIG. 1 is an illustration of a comparison 0.5 nM of the peptide of SEQ ID NO: 1 (“UN1”) to a serum control sample in the formation of tubules from Human Microvascular Endothelial Cells (HMVEC) in Matrigel™ after 3 hours.
FIG. 2 is a graph illustrating a measure of angiogenesis in terms of total process length in Human Microvascular Endothelial Cells (HMVEC) with 0.4 nM and 250 nM of the SEQ ID NO: 1 (“UN1”).
FIG. 3 is a graph illustrating a measure of angiogenesis in terms of total process length in Human Microvascular Endothelial Cells (HMVEC) with 0.4 nM and 250 nM of the peptide of SEQ ID NO: 3 (“UN3”).
as §1
The peptide (SEQ. ID NO: 1 (“UN1”)) was compared to each of VEGF 4 ng/ml and Serum Control in an in vitro angiogenesis analysis.
The peptide (SEQ ID NO: 3 (“UN3”)) was also compared to VEGF and Serum Control in in vitro angiogenesis analysis.

Row | Sequence | relative wound closure via NHEK migration [1] | keratinocyte migration in response to injury in vitro [1] | formation of tubules (number and lengths of processes or tubules), in vitro angiogenesis ([2]; 0.5 nM peptide, HMVEC in Matrigel, after 3 hours, versus serum control (FIG. 1)) | induction of angiogenesis in vitro [2] | tubule formation ([2]; in comparison to Serum Control and VEGF 4 ng/ml (FIGS. 1 and 2)) | process length ([2]; in comparison to Serum Control and VEGF 4 ng/ml, 0.4 nM and 250 nM (FIG. 2)) | process length ([2]; in comparison to VEGF, peptide at 250 nM (FIG. 3)) | process length ([2]; in comparison with Serum Control, 0.4 nM and 250 nM (FIG. 3))
1 | ELLESYIDR [UN1] | significantly better | promote keratinocyte migrations | significant induction of in vitro angiogenesis | induce angiogenesis in vitro | induced significant tubule formation | significant tubule formation and process length |  | 
2 | ELLESYIDRPTATSEYQTFFNPR [UN3] | significantly better | promote keratinocyte migrations |  | induce angiogenesis in vitro |  |  | significant increase in process length | significant increase in process length
3 | TATSEYQTFFNPR [UN2] | significantly better |  |  |  |  |  |  | 
